Data from patent US3991053A.
≈ marks a conversion by molar mass, not a printed value.

Legend:
[1] = test system: Escherichia coli; assay: In vitro MIC, two-fold serial dilution in Brain-Heart Infusion Broth, Escherichia coli; conditions: read-out: MIC (minimum inhibitory concentration) Esch. coli
[2] = test system: Streptococcus pyogenes; assay: In vitro MIC, two-fold serial dilution in Brain-Heart Infusion Broth, Streptococcus pyogenes; conditions: read-out: MIC (minimum inhibitory concentration) Strep. pyogenes
[3] = test system: Pasteurella multocida; assay: In vitro MIC, two-fold serial dilution in Brain-Heart Infusion Broth, Pasteurella multocida; conditions: read-out: MIC (minimum inhibitory concentration) Past. multocida
[4] = test system: Salmonella choleraesuis; assay: In vitro MIC, two-fold serial dilution in Brain-Heart Infusion Broth, Salmonella choleraesuis; conditions: Salmonella enterica, read-out: MIC (minimum inhibitory concentration) Sal. choleraesuis
[5] = test system: Salmonella choleraesuis; assay: In vivo protection of mice infected intraperitoneally with Salmonella choleraesuis; conditions: multiple dosing, 25 mg./kg., percentage of animals which survive; for Percentage protection Sal. choleraesuis SC: subcutaneous (SC)
Experimental: (§1) In determining the in vivo activity of the compounds of the invention, the test compound is administered to mice which have been infected by intraperitoneal injection of a lethal inoculum of pathogenic bacteria. The test compound is administered using a multiple dosing regimen, using either the oral (PO) or the subcutaneous (SC) route. The inoculum of bacteria varies from one to about ten times the amount needed to kill 100% of the mice, under the conditions of the test. At the end of the test, the activity of a compound is assessed by counting the number of survivors among the treated animals, and expressing the activity of a compound as the percentage of animals which survive. In Table I, in vivo activities of several of the compounds of this invention against Salmonella choleraesuis and Pasteurella multocida are presented. | *The dosage of test compound in the protection studies using Salmonnella | choleraesuis was 25 mg./kg. of body weight, and using Pasteurella | multocida it was 50 mg./kg. of body weight.

[6] = test system: Treponema hyodysenteriae; assay: In vitro MIC, two-fold serial dilution in Brain-Heart Infusion Broth, Treponema hyodysenteriae; conditions: Brachyspira hyodysenteriae, read-out: MIC (minimum inhibitory concentration) Trep. hyodysenteriae
[7] = test system: Pasteurella multocida; assay: In vivo protection of mice infected intraperitoneally with Pasteurella multocida; conditions: multiple dosing, 50 mg./kg., percentage of animals which survive; for Percentage protection Past. multocida SC: subcutaneous (SC)
Experimental: as §1

| Compound | MIC [1] [µg/mL] | MIC [2] [µg/mL] | MIC [3] [µg/mL] | MIC [4] [µg/mL] | Percentage protection Sal. choleraesuis PO [5] [%] | Percentage protection Sal. choleraesuis SC [5] [%] | MIC [6] [µg/mL] | Percentage protection Past. multocida PO [7] [%] | Percentage protection Past. multocida SC [7] [%] |
| --- | --- | --- | --- | --- | --- | --- | --- | --- | --- |
| CC1(OCc2ccccc2)OCc2c1[n+]([O-])c1ccccc1[n+]2[O-] (centres unmarked) [1-Benzyloxy-1-methyl-1,3-dihydrofuro[3,4-b]quinoxaline 4,9-Dioxide] | 12.5 (≈ 38.5 µM) | 6.25 (≈ 19.3 µM) | 3.12 (≈ 9.62 µM) | 12.5 (≈ 38.5 µM) | 40 | 60 | – | – | – |
| CCOC1(C)OCc2c1[n+]([O-])c1ccccc1[n+]2[O-] (centres unmarked) [1-Ethoxy-1-methyl-1,3-dihydrofuro[3,4-b]quinoxaline 4,9-Dioxide] | 12.5 (≈ 47.7 µM) | 3.12 (≈ 11.9 µM) | 12.5 (≈ 47.7 µM) | 12.5 (≈ 47.7 µM) | 70 | 50 | – | – | – |
| CC1(O)OCc2c1[n+]([O-])c1ccccc1[n+]2[O-] (centres unmarked) [1-Hydroxy-1-methyl-1,3-dihydrofuro[3,4-b]quinoxaline 4,9-dioxide] | 1.56 (≈ 6.66 µM) | 0.78 (≈ 3.33 µM) | 12.5 (≈ 53.4 µM) | 1.56 (≈ 6.66 µM) | 100 | 100 | 0.09 (≈ 0.384 µM) | 100 | 100 |
| COC1(C)OCc2c1[n+]([O-])c1ccccc1[n+]2[O-] (centres unmarked) [1-Methoxy-1-methyl-1,3-dihydrofuro[3,4-b]quinoxaline 4,9-Dioxide] | 3.12 (≈ 12.6 µM) | 0.78 (≈ 3.14 µM) | 3.12 (≈ 12.6 µM) | 1.56 (≈ 6.28 µM) | 100 | 100 | – | 90 | 100 |
